Measured values taken from US7671074B2, “Sulfonylguanidine compounds and pharmaceutical uses thereof” (Gruenenthal GmbH, priority 2000, dated 2010).
Where two headings read alike, the source gives them in different places.

Legend:
gabapentin binding site = assay: Binding assay: displacement of gabapentin from its binding site; details: for IC50: displacement of gabapentin from its binding site; for Percent inhibition: inhibition/displacement of gabapentin, concentration 10^−5 μM [sic]
Method: Gabapentin was used in a binding assay in order to check the binding and affinities of the selected compounds. The affinity of the compounds according to the invention was measured via the displacement of gabapentin from its binding site.

[1] = test system: male Sprague-Dawley rats with L5/L6 spinal nerve ligatures; assay: In vivo experiments according to Chung (spinal nerve ligation, tactile withdrawal threshold); design: species or system rat; details: for ED50: Rattus norvegicus
Method: In male Sprague-Dawley rats spinal nerve ligatures were applied according to Kim and Chung (1992) to the left L5/L6 spinal nerves. At the same time spinal catheters were implanted according to Pogatzki et al. ^6 (2000). 4 to 6 days after the operation the tactile threshold baseline (withdrawal thresholds) was measured on the ipsilateral and contra lateral rear paw by an electronic vonFrey anaesthesiometer (IITC Life Science, USA). […] After the test and baseline measurement, gabapentin and substances according to the invention were administered. The tactile withdrawal thresholds were measured 30 minutes after administration. The results are expressed as ED50 and % maximal possible effect (% MPE; % of the maximal possible effect) on the ipsilateral side, in which the baseline is taken as 0% and the withdrawal threshold of a control group is taken as 100% MPE.

[2] = test system: male albino mice (NMRI), formalin-induced nociception; assay: Formalin test on mice (second phase); type: in vivo, mouse; details: Mus musculus, iv, formalin test, i.v., read-out: ED50 value
Method: The investigations to determine the antinociceptive action of the compounds according to the invention were carried out by the formalin test on male albino mice (NMRI, 25-35 g, Iffa Credo, Belgium).
In the formalin test the first (early) phase (0-15 minutes after the formalin injection) and the second (late) phase (15-60 minutes after the formalin injection) differ (D. Dubuisson et al., Pain, Vol. 4, pp. 161-174 (1977)). The early phase, being a direct reaction to the formalin injection, constitutes a model for acute pain, whereas the late phase is regarded as a model for persistent (chronic) pain (T. J. Coderre et al., Pain, Vol. 52, pp. 259-285 (1993)).
The compounds according to the invention were investigated in the second phase of the formalin test in order to obtain information on the effects of substances in chronic/inflammatory pain. By means of a single subcutaneous formalin injection (20 μl, 1% aqueous solution) into the dorsal side of the right-hand rear paw, a nociceptive reaction was induced in unconstrained experimental animals, manifested in a noticeable licking and biting of the affected paw.
The nociceptive behavior for the test period in the second (late) phase of the formalin test was continuously monitored by observing the animals. The pain reaction was quantified by totaling the time in seconds during which the animals continued to lick and bite the affected paw during the investigation period. After injecting substances that have an antinociceptive effect in the formalin test, the aforedescribed behavior pattern of the animals is reduced or possibly even cancelled.
Corresponding to the substance tests, in which the animals had been injected with the test substance before formalin, the control animals were injected with a vehicle, i.e. solvent (e.g. 0.9% NaCl solution) before the formalin injection. […]
Based on the quantification of the pain reaction, the effect of the substance in the formalin test was determined as the change in the control in percentage terms. […]

Compound	IC50 (gabapentin binding site) [nM]	Percent inhibition (gabapentin binding site) [%]	also measured
Cc1ccc(S(=O)(=O)/N=C(\N)NCc2ccccn2)cc1 [Example 1]	421	82	ED50 ([1]; 0.5 h, rats, Chung model, tactile withdrawal thresholds 30 minutes after administration, ipsilateral side, read-out: ED50): ~25 mg/kg; ED50 ([1]; read-out:, table title: Analgesia testing in rats according to Chung, further investigation): 10 to 20 mg/kg; superiority to gabapentin (factor) ([1]; rats, Chung model, ED50 compared with gabapentin): 4; effect compared with gabapentin ([1]; rats, Chung test, further investigation, result in words): superior in their effect to gabapentin; effect in the Chung test ([1]; rats, further investigation, result in words): show an effect
Cc1ccc(S(=O)(=O)/N=C(\N)NCc2ccccc2)cc1 [Example 2, N-[amino-(benzylaminomethylene)]-4-methylbenzene-sulfonamide]	–	69.7	–
N/C(=N\S(=O)(=O)c1ccc(Br)cc1)NCc1ccccn1 [Example 32, N-{amino[(pyridin-2-yl-methyl)-amino]-methylene}-4-bromobenzenesulfonamide]	218	–	–
N/C(=N\S(=O)(=O)c1ccc(Cl)c(Cl)c1)NCc1ccccn1 [Example 33, N-{amino[(pyridin-2-yl-methyl)-amino]-methylene}-3,4-dichlorobenzenesulfonamide]	1100	–	–
CC(C)c1ccc(S(=O)(=O)/N=C(\N)NCc2ccccn2)cc1 [Example 34, N-{amino[(pyridin-2-yl-methyl)-amino]-methylene}-4-isopropylbenzenesulfonamide]	33	–	–
N/C(=N\S(=O)(=O)c1ccc(I)cc1)NCc1ccccn1 [Example 35, N-{amino[(pyridin-2-yl-methyl)-amino]-methylene}-4-iodobenzenesulfonamide]	50	–	–
Cl.N/C(=N\S(=O)(=O)c1ccccc1)NCc1ccccn1 [Example 36, N-{amino[(pyridin-2-yl-methyl)-amino]-methylene}-benzenesulfonamide]	–	17	–
N/C(=N\S(=O)(=O)c1ccc2ccccc2c1)NCc1ccccn1 [Example 37, Naphthalene-2-sulfonic acid amino-[(pyridin-2-yl-methyl)-amino]-methylene amide]	122	–	–
CC(=O)Nc1ccc(S(=O)(=O)/N=C(\N)NCc2ccccn2)cc1.Cl [Example 39, N-[4-({amino-[(pyridin-2-yl-methyl)-amino]-methylene}-sulfamoyl)-phenyl]-acetamide]	–	27	–
Cl.N/C(=N\S(=O)(=O)c1ccc(F)cc1)NCc1ccccn1 [Example 40, N-{amino[(pyridin-2-yl-methyl)-amino]-methylene}-4-fluorobenzenesulfonamide]	–	21	–
Cc1cc(C)c(S(=O)(=O)/N=C(\N)NCc2ccccn2)c(C)c1 [Example 41, N-{amino[(pyridin-2-yl-methyl)-amino]-methylene}-2,4,6-trimethylbenzenesulfonamide]	438	–	–
CCCc1ccc(S(=O)(=O)/N=C(\N)NCc2ccccn2)cc1 [Example 42, N-{amino[(pyridin-2-yl-methyl)-amino]-methylene}-4-propylbenzenesulfonamide]	27	–	–
COc1ccc(S(=O)(=O)/N=C(\N)NCc2ccccn2)cc1 [Example 43, N-{amino[(pyridin-2-yl-methyl)-amino]-methylene}-4-methoxybenzenesulfonamide]	634	–	–
N/C(=N\S(=O)(=O)c1cccc2ccccc12)NCc1ccccn1 [Example 44, Naphthalene-1-sulfonic acid amino-[(pyridin-2-yl-methyl)-amino]-methylene amide]	5300	–	–
Cc1cccc(S(=O)(=O)/N=C(\N)NCc2ccccn2)c1 [Example 45, N-{amino[(pyridin-2-yl-methyl)-amino]-methylene}-3-methylbenzenesulfonamide]	–	35	–
N/C(=N\S(=O)(=O)c1cccs1)NCc1ccccn1 [Example 46, Thiophene-2-sulfonic acid amino-[(pyridin-2-yl-methyl)-amino]-methylene amide]	–	36	–
N/C(=N\S(=O)(=O)c1cccc2cccnc12)NCc1ccccn1 [Example 47, Quinoline-8-sulfonic acid amino-[(pyridin-2-yl-methyl)-amino]-methylene amide]	2800	–	–

Compound	IC50 (gabapentin binding site) [nM]	Percent inhibition (gabapentin binding site) [%]	also measured
Cc1c(S(=O)(=O)/N=C(\N)NCc2ccccn2)sc2ccc(Cl)cc12 [Example 48, 5-chloro-3-methylbenzo[b]thiophene-2-sulfonic acid amino-[(pyridin-2-yl-methyl)-amino]-methylene amide]	136	–	–
CC(C)(C)c1ccc(S(=O)(=O)/N=C(/N)NCc2ccccn2)cc1 [Example 49, N-{amino[(pyridin-2-yl-methyl)-amino]-methylene}-4-tert.-butylbenzenesulfonamide]	90	–	–
CCCCc1ccc(S(=O)(=O)/N=C(\N)NCc2ccccn2)cc1 [Example 50, N-{amino[(pyridin-2-yl-methyl)-amino]-methylene}-4-butylbenzenesulfonamide]	170	–	–
CC(C)(C)c1ccc(S(=O)(=O)/N=C(/N)NCc2ncccn2)cc1.Cl [Example 51]	–	5	–
CCCCc1ccc(S(=O)(=O)/N=C(/N)NCc2ccco2)cc1.Cl [Example 52, N-{amino[(furan-2-yl-methyl)-amino]-methylene}-4-butylbenzenesulfonamide]	–	47	–
Cc1ccc(S(=O)(=O)/N=C(/N)NCc2ccco2)cc1.Cl [Example 53, N-{amino[(furan-2-yl-methyl)-amino]-methylene}-4-methylbenzenesulfonamide]	–	26	–
CC(C)c1ccc(S(=O)(=O)/N=C(/N)NCc2ccco2)cc1 [Example 54, N-{amino[(furan-2-yl-methyl)-amino]-methylene}-4-isopropylbenzenesulfonamide]	3510	–	–
CCCc1ccc(S(=O)(=O)/N=C(/N)NCc2ccco2)cc1 [Example 55, N-{amino[(furan-2-yl-methyl)-amino]-methylene}-4-propylbenzenesulfonamide]	3200	–	–
CC(C)(C)c1ccc(S(=O)(=O)/N=C(/N)NCc2ccco2)cc1.Cl [Example 56, N-{amino[(furan-2-yl-methyl)-amino]-methylene}-4-tert.-butylbenzenesulfonamide]	–	49	–
CCCCc1ccc(S(=O)(=O)/N=C(/N)NCc2cccs2)cc1.Cl [Example 57, N-{amino[(thiophen-2-yl-methyl)-amino]-methylene}-4-butylbenzenesulfonamide]	–	41	–
CCCc1ccc(S(=O)(=O)/N=C(/N)NCc2cccs2)cc1 [Example 58, N-{amino[(thiophen-2-yl-methyl)-amino]-methylene}-4-propylbenzenesulfonamide]	1820	–	–
CC(C)c1ccc(S(=O)(=O)/N=C(/N)NCc2cccs2)cc1 [Example 59, N-{amino[(thiophen-2-yl-methyl)-amino]-methylene}-4-isopropylbenzenesulfonamide]	970	–	–
CC(C)(C)c1ccc(S(=O)(=O)/N=C(/N)NCc2cccs2)cc1 [Example 60, N-{amino[(thiophen-2-yl-methyl)-amino]-methylene}-4-tert.-butylbenzenesulfonamide]	5690	–	–
Cl.N/C(=N/S(=O)(=O)c1ccc(Cl)cc1)NCc1cccs1 [Example 61, N-{amino[(thiophen-2-yl-methyl)-amino]-methylene}-4-chlorobenzenesulfonamide]	–	24	–
Cc1ccc(S(=O)(=O)/N=C(/N)NCc2cccs2)cc1.Cl [Example 62, N-{amino[(thiophen-2-yl-methyl)-amino]-methylene}-4-methylbenzenesulfonamide]	–	29	–
Cl.N/C(=N/S(=O)(=O)c1ccc(Cl)cc1)NCc1ccco1 [Example 63, N-{amino[(furan-2-yl-methyl)-amino]-methylene}-4-chlorobenzenesulfonamide]	–	23.5	–
NCC1(CC(=O)O)CCCCC1 [gabapentin, reference compound]	–	–	ED50 ([1]; 0.5 h): 92.6 mg/kg; ED50 [2]: 79 mg/kg
